The target in experiment [1] is IRAK4 (Homo sapiens (Human), UniProt Q9NWZ3). The experiment can be described thus: IRAK4 Inhibition Assay. It counts as biochemical. The following applies: IRAK4 Inhibition Assay; ATP 500 μM; read-out: IRAK4 IC50. A digest of the protocol: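 Mobility-shift readout: fluorescent substrate and phosphoproduct resolved electrophoretically on Caliper LabChip 3000 after EDTA quench (35 mM). Enzyme reaction of IRAK4, substrates and test compound ran 60 min at room temperature.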
Chain of IRAK4 (Q9NWZ3 whole entry, species assumed): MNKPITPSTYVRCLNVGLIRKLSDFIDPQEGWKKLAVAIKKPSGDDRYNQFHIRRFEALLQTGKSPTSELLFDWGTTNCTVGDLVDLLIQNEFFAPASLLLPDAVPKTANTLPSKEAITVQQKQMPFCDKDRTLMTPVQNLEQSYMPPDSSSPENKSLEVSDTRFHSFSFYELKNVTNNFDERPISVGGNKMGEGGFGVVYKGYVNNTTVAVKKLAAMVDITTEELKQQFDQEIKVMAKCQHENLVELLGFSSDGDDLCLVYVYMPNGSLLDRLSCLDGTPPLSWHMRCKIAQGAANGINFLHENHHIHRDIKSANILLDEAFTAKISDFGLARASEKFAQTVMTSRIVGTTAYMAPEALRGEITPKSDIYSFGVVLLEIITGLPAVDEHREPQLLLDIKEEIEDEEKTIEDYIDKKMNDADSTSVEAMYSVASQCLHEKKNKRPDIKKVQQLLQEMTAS

Experiment [2] relates to TLR2 induced IL-6 in peripheral blood mononuclear cells (PBMCs). The experiment is described as follows: PBMC TLR2 Induced IL-6 Assay. The following applies: PBMC TLR2 Induced IL-6 Assay, lipoteichoic acid stimulation, IL-6 by ELISA; for EC50: read-out: Cell EC50; for IC50: read-out: Cell IC50. It counts as cell-based, human. A digest of the protocol:
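Lipoteichoic acid at 10 µg/ml served as TLR2 stimulus for 5 hours, following a 30-minute compound pretreatment at 37° C. Cells were Ficoll-isolated human PBMCs, 250000 cells/well, cultured in RPMI plus 10% heat-inactivated FCS.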
Background: In an ELISA, binding on a coated surface is turned into a signal by an enzyme label.

Molecules are shown by their SMILES. Read-outs that look alike come from different tables or passages of the source.

By IC50 is commonly meant the midpoint of a concentration-inhibition curve. For orientation: EC50 means the midpoint of the concentration-response curve. As for `CC(C)Nc1cc(-n2ncc3cc(C#N)cnc32)ncc1C(=O)N[C@H]1CC[C@H](C(C)(C)O)C1` [Example 244], the IC50 in experiment [1] worked out at 6.3 nM. In addition, the EC50 in experiment [2] (Homo sapiens, PBMC) stood at 259 nM.
As to `CC(C)Nc1cc(-n2ncc3cc(C#N)cnc32)ncc1C(=O)N[C@@H]1CCCN(S(C)(=O)=O)C1` [Example 245], the 50% inhibitory concentration (IC50) in experiment [1] was 15.7 nM. Moreover, in experiment [2] (Homo sapiens, PBMC), the concentration for a half-maximal effect (EC50) worked out at 233 nM.
In the same order, the values of `CC(C)Nc1cc(-n2ncc3cc(C#N)cnc32)ncc1C(=O)N[C@H]1CCCN(S(C)(=O)=O)C1` [Example 246] are 19.8 nM and 353 nM.
In the same order, the values of `COC1CCN(c2ccc(NC(=O)c3cnc(-n4ncc5cc(C#N)cnc54)cc3NC(C)C)cn2)CC1` [Example 247] are 6.8 nM and 173 nM.
Take `CC(C)Nc1cc(-n2ncc3cc(C#N)cnc32)ncc1C(=O)NCC(F)C1(O)COC1` (stereo not drawn) [Example 248]: the IC50 amounted to 3.6 nM in experiment [1] and 554 nM in experiment [2].
For the compound `CC(C)Nc1cc(-n2ncc3cc(C#N)cnc32)ncc1C(=O)NCC(F)C1(O)COC1` (stereo not drawn) [Example 249], the 50% inhibitory concentration (IC50) in experiment [1] came out at 6.1 nM; in experiment [2], 355 nM.
`CC(C)Nc1cc(-n2ncc3cc(C#N)cnc32)ncc1C(=O)NCCC1(O)CCN(C)CC1` [Example 250]: the IC50 in experiment [1] turned out to be 8.3 nM. The EC50 in experiment [2] (Homo sapiens, PBMC) worked out at 497 nM.
For `CC(C)Nc1cc(-n2ncc3cc(C#N)cnc32)ncc1C(=O)NCCc1ccc(S(N)(=O)=O)cc1` [Example 251], the IC50 in experiment [1] came out at 3.1 nM. For the same compound, the EC50 in experiment [2] (Homo sapiens, PBMC) came to 311 nM.
As for `CC(C)Nc1cc(-n2ncc3cc(C#N)cnc32)ncc1C(=O)NCCC1(O)CCCC1` [Example 252], the 50% inhibitory concentration (IC50) stood at 3.6 nM in experiment [1] and 197 nM in experiment [2] (Homo sapiens, PBMC).
In the same order, the values of `CC(C)Nc1cc(-n2ncc3cc(C#N)cnc32)ncc1C(=O)NCCC1(O)CCN(C2COC2)CC1` [Example 253] are 8.5 nM and 363 nM.
Consider `COC1CCN(c2ccc(NC(=O)c3cnc(-n4ncc5cc(C#N)cnc54)cc3NC(C)C)nc2)CC1` [Example 254], for which the IC50 in experiment [1] stood at 10 nM; in experiment [2] (Homo sapiens, PBMC) it was 496 nM.
`CC(C)Nc1cc(-n2ncc3cc(C#N)cnc32)ncc1C(=O)NCCC1(O)CCNC1` (stereo not drawn) [Example 255]: in experiment [1], the IC50 stood at 7.5 nM. Besides, the EC50 in experiment [2] (Homo sapiens, PBMC) is 329 nM.
With `CC(C)Nc1cc(-n2ncc3cc(C#N)cnc32)ncc1C(=O)NC[C@@H](F)C(=O)N1CCOCC1` [Example 256], the IC50 in experiment [1] worked out at 14.7 nM; in experiment [2] (Homo sapiens, PBMC), 148 nM.
As to `CC(C)Nc1cc(-n2ncc3cc(C#N)cnc32)ncc1C(=O)NC[C@@H](F)C(=O)N1CCN(S(C)(=O)=O)CC1` [Example 257], the 50% inhibitory concentration (IC50) in experiment [1] came out at 8.9 nM. The 50% effective concentration (EC50) in experiment [2] (Homo sapiens, PBMC) is 136 nM.
As for `CC(C)Nc1cc(-n2ncc3cc(Cl)cnc32)ncc1C(=O)NCC(F)C1(O)COC1` (stereo not drawn) [Example 258], the IC50 in experiment [1] is 6.3 nM; in experiment [2] (Homo sapiens, PBMC) it was 42 nM.
In the same order, the values of `CC(C)Nc1cc(-n2ncc3cc(C#N)cnc32)ncc1C(=O)NCCc1ccncc1` [Example 259] are 2.5 nM and 102 nM.
In the same order, the values of `CC(C)Nc1cc(-n2ncc3cc(C#N)cnc32)ncc1C(=O)NCCc1ccc(F)cc1` [Example 260] are 3.3 nM and 159 nM.
In the same order, the values of `COc1ccc(CCNC(=O)c2cnc(-n3ncc4cc(C#N)cnc43)cc2NC(C)C)cc1` [Example 261] are 3.4 nM and 154 nM.
In the case of `CC(C)Nc1cc(-n2ncc3cc(C#N)c(N)nc32)ncc1C(=O)NC[C@@H](F)C(C)(C)O` [Example 262], the 50% inhibitory concentration (IC50) was found to be 1.3 nM in experiment [1] and 48 nM in experiment [2] (Homo sapiens, PBMC).
Turning to `CC(C)Nc1cc(-n2ncc3cc(C#N)cnc32)ncc1C(=O)NCCC(C)NS(C)(=O)=O` (stereo not drawn) [Example 264], the 50% inhibitory concentration (IC50) turned out to be 6.5 nM in experiment [1] and 338 nM in experiment [2] (Homo sapiens, PBMC).
In the case of `CC(C)Nc1cc(-n2ncc3cc(C#N)cnc32)ncc1C(=O)NCCC(C)NS(C)(=O)=O` (stereo not drawn) [Example 265], the IC50 turned out to be 2.4 nM in experiment [1] and 241 nM in experiment [2].
`CC(C)Nc1cc(-n2ncc3cc(C#N)cnc32)ncc1C(=O)NCCC1CCN(C)CC1` [Example 266]: the IC50 in experiment [1] is 2.6 nM; in experiment [2] (Homo sapiens, PBMC) it was 73 nM.
Turning to `CC(C)Nc1cc(-n2ncc3cc(C#N)cnc32)ncc1C(=O)NCc1nc(Cc2ccccc2)no1` [Example 267], the half-inhibitory concentration (IC50) in experiment [1] was found to be 4.5 nM; in experiment [2] (Homo sapiens, PBMC) it was 516 nM.
In the same order, the values of `CC(C)Nc1cc(-n2ncc3cc(C#N)cnc32)ncc1C(=O)Nc1cnn(C2COC2)c1` [Example 268] are 10.6 nM and 171 nM.
In the same order, the values of `CC(C)Nc1cc(-n2ncc3cc(C#N)cnc32)ncc1C(=O)NCCc1ccc(N(S(C)(=O)=O)S(C)(=O)=O)cc1` [Example 269] are 3.6 nM and 171 nM.
In the same order, the values of `CC(=O)Nc1ccc(CCNC(=O)c2cnc(-n3ncc4cc(C#N)cnc43)cc2NC(C)C)cc1` [Example 270] are 1.6 nM and 348 nM.
Consider `CC(C)Nc1cc(-n2ncc3cc(C#N)cnc32)ncc1C(=O)Nc1cnn(C2CCOCC2)c1` [Example 271], for which the IC50 in experiment [1] stood at 15.9 nM; in experiment [2] (Homo sapiens, PBMC) it was 176 nM.
In the same order, the values of `CC(C)Nc1cc(-n2ncc3cc(C#N)cnc32)ncc1C(=O)NC1CCN(S(=O)(=O)C(C)C)CC1` [Example 272] are 5.1 nM and 737 nM.
Turning to `CC(C)Nc1cc(-n2ncc3cc(C#N)cnc32)ncc1C(=O)NC1CCN(C(=O)C(C)C)CC1` [Example 273], the concentration for half-maximal inhibition (IC50) in experiment [1] stood at 18.6 nM; in experiment [2] (Homo sapiens, PBMC), 94 nM.
In the same order, the values of `CC(C)Nc1cc(-n2ncc3cc(C#N)cnc32)ncc1C(=O)NCCC1CCN(C(=O)CC#N)CC1` [Example 275] are 8 nM and 115 nM.
In the same order, the values of `CC(C)Nc1cc(-n2ncc3cc(C#N)cnc32)ncc1C(=O)NCCc1cccnc1` [Example 276] are 4.7 nM and 380 nM.
With `CC(C)Nc1cc(-n2ncc3cc(C#N)cnc32)ncc1C(=O)NCCC1(O)CCC(C)(O)CC1` (stereo not drawn) [Example 277], the IC50 in experiment [1] amounted to 5.9 nM; in experiment [2] (Homo sapiens, PBMC), 251 nM.
Regarding `CC(C)Nc1cc(-n2ncc3cc(C#N)cnc32)ncc1C(=O)NCCC1(O)CCC(F)(F)CC1` [Example 279], the half-maximal inhibitory concentration (IC50) in experiment [1] was 6.5 nM; in experiment [2] (Homo sapiens, PBMC) it was 247 nM.
On to `CC(C)CC(=O)NCc1cnc2c(cnn2-c2cc(NC(C)C)c(C(=O)NC[C@@H](F)C(C)(C)O)cn2)c1` [Example 280], for which the IC50 in experiment [1] is 16.9 nM; in experiment [2] (Homo sapiens, PBMC), 692 nM.
In the same order, the values of `CC(C)Nc1cc(-n2ncc3cc(C#N)cnc32)ncc1C(=O)Nc1cnn(C2CN(S(C)(=O)=O)C2)c1` [Example 281] are 7.8 nM and 255 nM.
With `CC[C@@H](C)Nc1cc(-n2ncc3cc(C#N)cnc32)ncc1C(=O)NC[C@@H](F)C(C)(C)O` [Example 283], the half-inhibitory concentration (IC50) in experiment [1] is 2.8 nM; in experiment [2] (Homo sapiens, PBMC), 135 nM.
In the same order, the values of `CC(C)Nc1cc(-n2ncc3cc(C#N)cnc32)ncc1C(=O)Nc1cnn(CC(F)F)c1` [Example 285] are 10 nM and 200 nM.
Consider `CC(C)(C)Nc1cc(-n2ncc3cc(C#N)cnc32)ncc1C(=O)NC[C@@H](F)C(C)(C)O` [Example 286], for which the 50% inhibitory concentration (IC50) was determined as 1.7 nM in experiment [1] and 158 nM in experiment [2] (Homo sapiens, PBMC).
For the compound `CC[C@H](C)Nc1cc(-n2ncc3cc(C#N)cnc32)ncc1C(=O)NC[C@@H](F)C(C)(C)O` [Example 289], the concentration for half-maximal inhibition (IC50) was 4.7 nM in experiment [1] and 275 nM in experiment [2] (Homo sapiens, PBMC).
